# Source: ChEMBL document CHEMBL1909046, “DrugMatrix in vitro pharmacology data”
# Experiments:
# [1] = DRUGMATRIX: Calcium Channel Type L, Dihydropyridine radioligand binding (ligand: [3H] Nitrendipine); format: cell membranes, Rattus norvegicus, Wistar, Cerebral cortex, Membrane; conditions: Not Active = under 50% inhibition at 10 µM
# Cytochrome P450 2D6 = Cytochrome P450 2D6 (Homo sapiens, UniProt P10635); conditions: bti-tn-5b1-4; further: in other assays of this panel Not Active means under 50% inhibition at 10 µM
# [2] = DRUGMATRIX: Tumor Necrosis Factor (TNF), Non-Selective radioligand binding (ligand: [125I] TNF-alpha); format: cell membranes, Membrane; conditions: u-937; Not Active = under 50% inhibition at 10 µM
# [3] = DRUGMATRIX: ATPase, Na+/K+ enzyme inhibition (substrate: ATP); format: tissue-based, Sus scrofa, Heart; conditions: Not Active = under 50% inhibition at 10 µM
# Adenosine receptor A3 = molecular target: T1, Adenosine receptor A3 (Homo sapiens, UniProt P0DMS8); format: cell membranes, CHO-K1, Membrane;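 further: radioligand binding assay with AB-MECA serving as the labeled ligand; in other assays of this panel Not Active means under 50% inhibition at 10 µM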
# T1 sequence (P0DMS8 whole entry): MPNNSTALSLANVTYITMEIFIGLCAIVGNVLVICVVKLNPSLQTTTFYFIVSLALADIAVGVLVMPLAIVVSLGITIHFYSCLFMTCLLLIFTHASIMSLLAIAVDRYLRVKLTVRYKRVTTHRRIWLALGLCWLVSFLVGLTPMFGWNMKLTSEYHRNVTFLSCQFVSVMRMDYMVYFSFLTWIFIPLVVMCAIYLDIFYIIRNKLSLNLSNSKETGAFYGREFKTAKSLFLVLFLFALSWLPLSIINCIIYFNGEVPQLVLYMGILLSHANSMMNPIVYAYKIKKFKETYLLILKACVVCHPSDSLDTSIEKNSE
# Cytochrome P450 2C9 = Cytochrome P450 2C9 (Homo sapiens, UniProt P11712); conditions: bti-tn-5b1-4; further: in other assays of this panel Not Active means under 50% inhibition at 10 µM
# [4] = DRUGMATRIX: Calcium Channel Type L, Phenylalkylamine radioligand binding (ligand: [3H] (-)-Desmethoxyverapamil (D-888)); format: cell membranes, Rattus norvegicus, Wistar, Brain, Membrane; conditions: Not Active = under 50% inhibition at 10 µM
# Calcitonin receptor = molecular target: T2, Calcitonin receptor (Homo sapiens, UniProt P30988); format: cell membranes, Membrane; conditions: t47d; further: in other assays of this panel Not Active means under 50% inhibition at 10 µM
# T2 sequence (P30988 whole entry): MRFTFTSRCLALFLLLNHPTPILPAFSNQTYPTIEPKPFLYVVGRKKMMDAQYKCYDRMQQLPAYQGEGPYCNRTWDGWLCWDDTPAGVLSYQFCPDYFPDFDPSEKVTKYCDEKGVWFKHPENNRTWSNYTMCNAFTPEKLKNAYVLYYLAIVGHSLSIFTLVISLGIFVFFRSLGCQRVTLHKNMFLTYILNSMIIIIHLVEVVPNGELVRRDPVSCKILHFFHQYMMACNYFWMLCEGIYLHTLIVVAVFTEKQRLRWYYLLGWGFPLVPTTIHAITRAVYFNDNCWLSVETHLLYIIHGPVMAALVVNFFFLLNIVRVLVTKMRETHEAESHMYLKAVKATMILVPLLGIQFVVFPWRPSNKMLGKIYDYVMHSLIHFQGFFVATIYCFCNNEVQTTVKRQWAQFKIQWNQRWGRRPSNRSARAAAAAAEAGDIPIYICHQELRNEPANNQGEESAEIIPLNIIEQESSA
# [5] = molecular target: Sigma non-opioid intracellular receptor 1 (Homo sapiens, UniProt Q99720); assay: DRUGMATRIX: Sigma1 radioligand binding (ligand: [3H] Haloperidol); format: cell membranes, Jurkat, Membrane; conditions: jurkat; Not Active = under 50% inhibition at 10 µM
# [6] = molecular target: Matrix metalloproteinase-9 (Homo sapiens, UniProt P14780); format: cell-based
# [7] = molecular target: T3, 5-hydroxytryptamine receptor 2C (Homo sapiens, UniProt P28335); assay: DRUGMATRIX: Serotonin (5-Hydroxytryptamine) 5-HT2C radioligand binding (ligand: [3H] Mesulergine); format: cell membranes, CHO-K1, Membrane; conditions: Not Active = under 50% inhibition at 10 µM
# T3 sequence (P28335 whole entry): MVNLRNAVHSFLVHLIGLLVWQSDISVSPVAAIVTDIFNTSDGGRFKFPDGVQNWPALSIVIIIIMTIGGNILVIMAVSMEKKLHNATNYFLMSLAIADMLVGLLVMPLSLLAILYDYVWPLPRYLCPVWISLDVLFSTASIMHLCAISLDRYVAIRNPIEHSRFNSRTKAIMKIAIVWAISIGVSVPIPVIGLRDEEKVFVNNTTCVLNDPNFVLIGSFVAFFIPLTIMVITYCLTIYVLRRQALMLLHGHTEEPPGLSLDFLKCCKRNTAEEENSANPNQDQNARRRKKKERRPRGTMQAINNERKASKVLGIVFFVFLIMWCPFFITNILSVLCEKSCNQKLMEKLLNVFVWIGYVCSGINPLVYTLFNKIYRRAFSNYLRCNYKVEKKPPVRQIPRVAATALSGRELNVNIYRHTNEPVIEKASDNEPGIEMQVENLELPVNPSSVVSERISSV
# [8] = DRUGMATRIX: Phorbol Ester radioligand binding (ligand: [3H] PDBu); format: cell membranes, Mus musculus, ICR, Brain, Membrane; conditions: Not Active = under 50% inhibition at 10 µM
# [9] = DRUGMATRIX: GABAA, Muscimol, Central radioligand binding (ligand: [3H] Muscimol); format: cell membranes, Rattus norvegicus, Wistar, Brain, Membrane; conditions: Not Active = under 50% inhibition at 10 µM
# [10] = molecular target: T4, Alpha-1B adrenergic receptor (Rattus norvegicus, UniProt P15823); assay: DRUGMATRIX: Alpha-1B adrenergic receptor radioligand binding (ligand: prazosin); format: cell membranes, Wistar, Liver, Membrane; conditions: Not Active = under 50% inhibition at 10 µM
# T4 sequence (P15823 whole entry): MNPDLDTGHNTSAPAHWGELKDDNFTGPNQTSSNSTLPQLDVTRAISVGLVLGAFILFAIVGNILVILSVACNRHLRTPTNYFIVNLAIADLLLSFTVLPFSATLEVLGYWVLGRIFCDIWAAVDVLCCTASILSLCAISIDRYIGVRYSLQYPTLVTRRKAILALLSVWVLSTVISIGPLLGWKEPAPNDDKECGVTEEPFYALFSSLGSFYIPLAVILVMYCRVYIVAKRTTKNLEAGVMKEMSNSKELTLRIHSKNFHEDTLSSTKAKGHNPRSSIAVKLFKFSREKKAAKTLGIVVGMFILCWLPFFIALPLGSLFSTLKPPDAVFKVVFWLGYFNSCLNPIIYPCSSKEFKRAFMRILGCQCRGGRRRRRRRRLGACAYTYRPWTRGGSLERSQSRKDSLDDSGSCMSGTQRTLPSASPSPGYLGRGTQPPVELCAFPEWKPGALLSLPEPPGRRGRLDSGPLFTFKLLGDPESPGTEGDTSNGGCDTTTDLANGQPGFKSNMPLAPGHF
# Matrix metalloproteinase-9, sequence (P14780 whole entry): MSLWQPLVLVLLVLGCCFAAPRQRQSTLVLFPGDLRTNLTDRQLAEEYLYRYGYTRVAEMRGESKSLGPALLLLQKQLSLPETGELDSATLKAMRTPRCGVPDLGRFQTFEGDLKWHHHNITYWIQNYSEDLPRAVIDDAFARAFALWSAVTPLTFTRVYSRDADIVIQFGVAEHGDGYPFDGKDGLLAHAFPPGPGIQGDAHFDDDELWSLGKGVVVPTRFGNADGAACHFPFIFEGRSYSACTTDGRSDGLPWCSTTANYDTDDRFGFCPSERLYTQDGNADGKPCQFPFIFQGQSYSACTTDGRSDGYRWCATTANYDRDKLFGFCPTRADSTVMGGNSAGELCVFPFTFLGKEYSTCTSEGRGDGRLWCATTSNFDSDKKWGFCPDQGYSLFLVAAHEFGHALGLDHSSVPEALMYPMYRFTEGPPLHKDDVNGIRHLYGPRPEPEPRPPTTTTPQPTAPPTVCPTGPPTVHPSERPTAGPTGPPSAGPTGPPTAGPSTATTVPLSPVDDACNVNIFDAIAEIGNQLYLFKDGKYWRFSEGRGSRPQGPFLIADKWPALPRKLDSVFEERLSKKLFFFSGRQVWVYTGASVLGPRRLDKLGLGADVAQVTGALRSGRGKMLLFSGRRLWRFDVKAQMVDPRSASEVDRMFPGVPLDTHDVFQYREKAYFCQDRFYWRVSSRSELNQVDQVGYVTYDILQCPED
# Cytochrome P450 2C9, sequence (P11712 whole entry): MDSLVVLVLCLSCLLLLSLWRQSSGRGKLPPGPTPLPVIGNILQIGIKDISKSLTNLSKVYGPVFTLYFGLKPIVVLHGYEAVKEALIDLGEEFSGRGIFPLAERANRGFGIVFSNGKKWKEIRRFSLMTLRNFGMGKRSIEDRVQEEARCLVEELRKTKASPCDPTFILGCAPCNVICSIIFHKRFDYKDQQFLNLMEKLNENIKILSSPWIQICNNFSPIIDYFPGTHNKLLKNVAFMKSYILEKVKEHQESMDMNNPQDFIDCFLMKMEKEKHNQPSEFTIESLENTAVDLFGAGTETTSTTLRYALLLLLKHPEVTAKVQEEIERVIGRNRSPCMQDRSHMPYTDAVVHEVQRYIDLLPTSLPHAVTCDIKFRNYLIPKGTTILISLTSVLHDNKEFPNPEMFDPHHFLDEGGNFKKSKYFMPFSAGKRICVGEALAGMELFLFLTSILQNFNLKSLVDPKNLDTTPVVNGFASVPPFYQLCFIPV
# Cytochrome P450 2D6, sequence (P10635 whole entry): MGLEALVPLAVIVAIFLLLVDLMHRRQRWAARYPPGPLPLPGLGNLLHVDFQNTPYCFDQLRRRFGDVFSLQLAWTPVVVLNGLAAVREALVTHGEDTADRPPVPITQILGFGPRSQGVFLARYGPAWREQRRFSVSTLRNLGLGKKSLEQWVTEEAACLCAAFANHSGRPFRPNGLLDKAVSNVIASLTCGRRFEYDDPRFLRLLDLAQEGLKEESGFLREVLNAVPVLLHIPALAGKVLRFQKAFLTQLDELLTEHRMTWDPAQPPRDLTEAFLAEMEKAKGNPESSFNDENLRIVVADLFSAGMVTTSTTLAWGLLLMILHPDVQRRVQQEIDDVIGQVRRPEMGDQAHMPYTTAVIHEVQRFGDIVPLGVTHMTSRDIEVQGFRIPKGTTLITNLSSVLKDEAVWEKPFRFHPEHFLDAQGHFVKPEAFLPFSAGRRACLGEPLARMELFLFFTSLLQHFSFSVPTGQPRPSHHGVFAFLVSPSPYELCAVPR
# Sigma non-opioid intracellular receptor 1, sequence (Q99720 whole entry): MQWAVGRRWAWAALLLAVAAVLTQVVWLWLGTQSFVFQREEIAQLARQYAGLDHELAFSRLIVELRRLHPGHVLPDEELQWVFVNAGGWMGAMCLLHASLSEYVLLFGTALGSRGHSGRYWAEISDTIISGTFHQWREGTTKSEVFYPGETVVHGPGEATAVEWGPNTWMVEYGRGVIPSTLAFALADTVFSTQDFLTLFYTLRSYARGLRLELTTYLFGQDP
SMILES,IC50 [1],Ki [1],IC50 (Cytochrome P450 2D6),Ki (Cytochrome P450 2D6),IC50 [2],Ki [2],IC50 [3],Ki [3],IC50 (Cytochrome P450 2C9),Ki (Cytochrome P450 2C9),IC50 [4],Ki [4],IC50 (Calcitonin receptor),IC50 [5],IC50 [6],IC50 [8],Ki [8],IC50 [9],Ki [9],IC50 [10],other results
CCOC(=O)c1ccc(N)cc1 [BENZOCAINE],Not Active,Not Active,Not Active,Not Active,Not Active,Not Active,Not Active,Not Active,Not Active,Not Active,Not Active,Not Active,Not Active,Not Active,Not Active,Not Active,Not Active,Not Active,Not Active,Not Active,IC50 (Adenosine receptor A3; cho-k1): Not Active; IC50 ([7]; cho-k1): Not Active
OCc1ccccc1 [BENZYL ALCOHOL],Not Active,Not Active,Not Active,Not Active,Not Active,Not Active,Not Active,Not Active,Not Active,Not Active,Not Active,Not Active,Not Active,Not Active,Not Active,Not Active,Not Active,Not Active,Not Active,Not Active,IC50 (Adenosine receptor A3; cho-k1): Not Active; IC50 ([7]; cho-k1): Not Active
CC(C)(Oc1ccc(CCNC(=O)c2ccc(Cl)cc2)cc1)C(=O)O [BEZAFIBRATE],Not Active,Not Active,Not Active,Not Active,Not Active,Not Active,Not Active,Not Active,Not Active,Not Active,Not Active,Not Active,Not Active,Not Active,Not Active,Not Active,Not Active,Not Active,Not Active,Not Active,IC50 (Adenosine receptor A3; cho-k1): Not Active; IC50 ([7]; cho-k1): Not Active
CCCC[C@@H](CC)COC(=O)c1ccccc1C(=O)OC[C@@H](CC)CCCC [BIS(2-ETHYLHEXYL)PHTHALATE],Not Active,Not Active,Not Active,Not Active,Not Active,Not Active,Not Active,Not Active,Not Active,Not Active,Not Active,Not Active,Not Active,Not Active,Not Active,Not Active,Not Active,Not Active,Not Active,Not Active,IC50 (Adenosine receptor A3; cho-k1): Not Active; IC50 ([7]; cho-k1): Not Active
Oc1c(Cl)cc(Cl)cc1Sc1cc(Cl)cc(Cl)c1O [BITHIONOL],Not Active,Not Active,Not Active,Not Active,Not Active,Not Active,–,–,Not Active,Not Active,Not Active,Not Active,Not Active,Not Active,Not Active,Not Active,Not Active,Not Active,Not Active,Not Active,IC50 ([3]; read-out: IC50): 5.02 µM; IC50 (Adenosine receptor A3; read-out: IC50): 0.829 µM; Ki (Adenosine receptor A3; read-out: Ki): 0.468 µM; IC50 ([7]; read-out: IC50): 8.78 µM; Ki ([7]; read-out: Ki): 4.6 µM
Brc1ccccc1 [BROMOBENZENE],Not Active,Not Active,Not Active,Not Active,Not Active,Not Active,Not Active,Not Active,Not Active,Not Active,Not Active,Not Active,Not Active,Not Active,Not Active,Not Active,Not Active,Not Active,Not Active,Not Active,IC50 (Adenosine receptor A3; cho-k1): Not Active; IC50 ([7]; cho-k1): Not Active
CC[C@@]1(O)C(=O)OCc2c1cc1n(c2=O)Cc2cc3ccccc3nc2-1 [CAMPTOTHECIN],Not Active,Not Active,Not Active,Not Active,Not Active,Not Active,Not Active,Not Active,Not Active,Not Active,Not Active,Not Active,Not Active,Not Active,Not Active,Not Active,Not Active,Not Active,Not Active,Not Active,IC50 (Adenosine receptor A3; cho-k1): Not Active; IC50 ([7]; cho-k1): Not Active
